The assay concerns the target hepatitis C virus RNA dependant polymerase (NS5B) (Hepatitis C virus genotype 1b, UniProt P26663). Nature of the assay: Inhibition of NS5B RNA dependent RNA polymerase activity. The assay is classed as biochemical. The conditions noted are these: Table 7; class ranges. How it is done:
A suitable assay is described in the examples.
Inhibition of NS5B RNA Dependent RNA Polymerase Activity
The compounds of the invention were tested for inhibitory activity against the hepatitis C virus RNA dependant polymerase (NS5B), according to protocol described in WO 03/010141
Chain of hepatitis C virus RNA dependant polymerase (NS5B) (P26663 2420-3010): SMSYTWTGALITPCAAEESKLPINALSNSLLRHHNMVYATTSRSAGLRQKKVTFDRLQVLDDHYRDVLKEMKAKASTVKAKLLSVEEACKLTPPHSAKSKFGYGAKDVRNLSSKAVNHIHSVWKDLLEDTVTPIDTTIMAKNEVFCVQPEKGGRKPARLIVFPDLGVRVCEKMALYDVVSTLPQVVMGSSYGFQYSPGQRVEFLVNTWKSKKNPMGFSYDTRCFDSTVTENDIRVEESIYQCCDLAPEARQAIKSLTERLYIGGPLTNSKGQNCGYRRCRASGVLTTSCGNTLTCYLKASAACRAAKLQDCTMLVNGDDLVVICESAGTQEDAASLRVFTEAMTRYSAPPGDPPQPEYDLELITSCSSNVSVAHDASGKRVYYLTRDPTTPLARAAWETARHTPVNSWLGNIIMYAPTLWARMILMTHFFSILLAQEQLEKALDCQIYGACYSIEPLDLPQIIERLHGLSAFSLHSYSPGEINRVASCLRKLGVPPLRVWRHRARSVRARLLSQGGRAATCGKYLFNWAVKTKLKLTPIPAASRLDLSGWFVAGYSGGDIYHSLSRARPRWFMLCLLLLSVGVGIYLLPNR
`Cc1c(C(=O)O)ccc2c(C3CCCCC3)c(-c3ccoc3)n(CC(=O)N3CCC(N4CCCC4)CC3)c12` [Example 7004] gave an IC50 below 0.2 µM.

For the molecule `Cc1c(C(=O)O)ccc2c(C3CCCCC3)c(-c3ccoc3)n(CC(=O)N3CCOCC3)c12` [Example 7005], the IC50 is below 0.2 µM.

The molecule `COc1cc2c(C3CCCCC3)c(-c3ccoc3)n(CC(=O)N(C)C)c2cc1C(=O)O` [Example 7006] showed an IC50 of 0.2 to 1 µM. For `O=C(O)c1cc2c(cc1O)c(C1CCCCC1)c(-c1ccoc1)n2CC(=O)N1CCC(N2CCCC2)CC1` [Example 7007], the 50% inhibitory concentration (IC50) was 1 to 10 µM. The molecule `O=C(O)c1cc2c(cc1O)c(C1CCCCC1)c(-c1ccoc1)n2CC(=O)N1CCOCC1` [Example 7008] registered an IC50 of 1 to 10 µM. As to `CN(C)C(=O)Cn1c(-c2ccoc2)c(C2CCCCC2)c2cc(O)c(C(=O)O)cc21` [Example 7009], the IC50 fell in the range of 1 to 10 µM.

In the case of `COC(=O)c1cc2c(cc1O)c(C1CCCCC1)c(-c1ccoc1)n2CC(=O)N1CCC(N2CCCC2)CC1` [Example 7010], the IC50 lay in the range of 1 to 10 µM. The result for `O=C(O)COc1cc2c(C3CCCCC3)c(-c3ccoc3)n(CC(=O)N3CCOCC3)c2cc1C(=O)O` [Example 7011] reads 1 to 10 µM; that for `O=C(NC1CCCc2ccccc21)c1ccc2c(c1)c(C1CCCCC1)c(-c1ccoc1)n2CC(=O)N1CCC(N2CCCC2)CC1` (stereo not shown) [Example 7012], 1 to 10 µM; that for `CCN1CCCC1CNC(=O)c1ccc2c(c1)c(C1CCCCC1)c(-c1ccoc1)n2CC(=O)N1CCC(N2CCCC2)CC1` (stereo not shown) [Example 7013], 1 to 10 µM. For `O=C(NCCN1CCCC1)c1ccc2c(c1)c(C1CCCCC1)c(-c1ccoc1)n2CC(=O)N1CCC(N2CCCC2)CC1` [Example 7014], the IC50 lay within 1 to 10 µM. In turn, `O=C(NCCc1c[nH]cn1)c1ccc2c(c1)c(C1CCCCC1)c(-c1ccoc1)n2CC(=O)N1CCC(N2CCCC2)CC1` [Example 7015] came in with an IC50 of 1 to 10 µM. `O=C(NCC1CCCO1)c1ccc2c(c1)c(C1CCCCC1)c(-c1ccoc1)n2CC(=O)N1CCC(N2CCCC2)CC1` (stereo not shown) [Example 7016] returned an IC50 of 1 to 10 µM. The result for `NC(=O)C1CCCN(C(=O)c2ccc3c(c2)c(C2CCCCC2)c(-c2ccoc2)n3CC(=O)N2CCC(N3CCCC3)CC2)C1` (stereo not shown) [Example 7017] reads 1 to 10 µM; that for `O=C(Nc1ccc(N2CCOCC2)cc1)c1ccc2c(c1)c(C1CCCCC1)c(-c1ccoc1)n2CC(=O)N1CCC(N2CCCC2)CC1` [Example 7018], 1 to 10 µM; that for `O=C(NCc1ccccn1)c1ccc2c(c1)c(C1CCCCC1)c(-c1ccoc1)n2CC(=O)N1CCC(N2CCCC2)CC1` [Example 7019], 1 to 10 µM. The result for `CN(CCc1ccccn1)C(=O)c1ccc2c(c1)c(C1CCCCC1)c(-c1ccoc1)n2CC(=O)N1CCC(N2CCCC2)CC1` [Example 7020] reads 1 to 10 µM. For the molecule `O=C(NCc1cccnc1)c1ccc2c(c1)c(C1CCCCC1)c(-c1ccoc1)n2CC(=O)N1CCC(N2CCCC2)CC1` [Example 7021], the IC50 fell in the range of 1 to 10 µM. The result for `O=C(Nc1ccccc1)c1ccc2c(c1)c(C1CCCCC1)c(-c1ccoc1)n2CC(=O)N1CCC(N2CCCC2)CC1` [Example 7023] reads 1 to 10 µM; that for `O=C(Nc1ccc(CCO)cc1)c1ccc2c(c1)c(C1CCCCC1)c(-c1ccoc1)n2CC(=O)N1CCC(N2CCCC2)CC1` [Example 7024], 1 to 10 µM; that for `O=C(NC(Cc1ccccc1)c1ccccc1)c1ccc2c(c1)c(C1CCCCC1)c(-c1ccoc1)n2CC(=O)N1CCC(N2CCCC2)CC1` (stereo not shown) [Example 7025], 1 to 10 µM.

In turn, `CC(NC(=O)c1ccc2c(c1)c(C1CCCCC1)c(-c1ccoc1)n2CC(=O)N1CCC(N2CCCC2)CC1)c1ccccc1` (stereo not shown) [Example 7026] had an IC50 of 1 to 10 µM. In the case of `O=C(NCc1ccccc1)c1ccc2c(c1)c(C1CCCCC1)c(-c1ccoc1)n2CC(=O)N1CCC(N2CCCC2)CC1` [Example 7027], the IC50 is 1 to 10 µM.

Turning to `COc1ccc(CNC(=O)c2ccc3c(c2)c(C2CCCCC2)c(-c2ccoc2)n3CC(=O)N2CCC(N3CCCC3)CC2)cc1OC` [Example 7028], the IC50 is 1 to 10 µM.

As to `Cc1cccc(CNC(=O)c2ccc3c(c2)c(C2CCCCC2)c(-c2ccoc2)n3CC(=O)N2CCC(N3CCCC3)CC2)c1` [Example 7029], the IC50 was 1 to 10 µM. The molecule `CC(CNC(=O)c1ccc2c(c1)c(C1CCCCC1)c(-c1ccoc1)n2CC(=O)N1CCC(N2CCCC2)CC1)c1ccccc1` (stereo not shown) [Example 7030] displayed an IC50 of 1 to 10 µM. For `CC(=O)NCCNC(=O)c1ccc2c(c1)c(C1CCCCC1)c(-c1ccoc1)n2CC(=O)N1CCC(N2CCCC2)CC1` [Example 7031], the IC50 was in the range of 1 to 10 µM.

Molecule `NS(=O)(=O)c1ccc(CCNC(=O)c2ccc3c(c2)c(C2CCCCC2)c(-c2ccoc2)n3CC(=O)N2CCC(N3CCCC3)CC2)cc1` [Example 7032] yielded an IC50 of 1 to 10 µM. Turning to `CN(C)C(=O)c1ccc2c(c1)c(C1CCCCC1)c(-c1ccoc1)n2CC(=O)N1CCC(N2CCCC2)CC1` [Example 7033], the IC50 is 1 to 10 µM. The result for `CNC(=O)c1ccc2c(c1)c(C1CCCCC1)c(-c1ccoc1)n2CC(=O)N1CCC(N2CCCC2)CC1` [Example 7034] reads 1 to 10 µM. `NC(=O)C1CCN(C(=O)c2ccc3c(c2)c(C2CCCCC2)c(-c2ccoc2)n3CC(=O)N2CCC(N3CCCC3)CC2)CC1` [Example 7035] yielded a half-inhibitory concentration (IC50) of 1 to 10 µM. In turn, `O=C(NCc1c(F)cccc1Cl)c1ccc2c(c1)c(C1CCCCC1)c(-c1ccoc1)n2CC(=O)N1CCC(N2CCCC2)CC1` [Example 7036] gave a half-inhibitory concentration (IC50) of 1 to 10 µM. In turn, `O=C(Nc1cccc(-c2ccccc2)c1)c1ccc2c(c1)c(C1CCCCC1)c(-c1ccoc1)n2CC(=O)N1CCC(N2CCCC2)CC1` [Example 7037] came in with a half-inhibitory concentration (IC50) of 1 to 10 µM. The result for `O=C(NCCSCc1c(F)cccc1Cl)c1ccc2c(c1)c(C1CCCCC1)c(-c1ccoc1)n2CC(=O)N1CCC(N2CCCC2)CC1` [Example 7038] reads 1 to 10 µM; that for `CC(=O)NC1CCN(C(=O)c2ccc3c(c2)c(C2CCCCC2)c(-c2ccoc2)n3CC(=O)N2CCC(N3CCCC3)CC2)C1` (stereo not shown) [Example 7039], 1 to 10 µM; that for `O=C(NC1CCN(Cc2ccccc2)C1)c1ccc2c(c1)c(C1CCCCC1)c(-c1ccoc1)n2CC(=O)N1CCC(N2CCCC2)CC1` (stereo not shown) [Example 7040], 1 to 10 µM. Consider `O=C(N[C@H]1CC[C@H](O)CC1)c1ccc2c(c1)c(C1CCCCC1)c(-c1ccoc1)n2CC(=O)N1CCC(N2CCCC2)CC1` [Example 7041], for which the IC50 was in the range of 1 to 10 µM. `O=C(NCc1ccc(F)c(C(F)(F)F)c1)c1ccc2c(c1)c(C1CCCCC1)c(-c1ccoc1)n2CC(=O)N1CCC(N2CCCC2)CC1` [Example 7042] had a concentration for half-maximal inhibition (IC50) of 1 to 10 µM.

Consider `O=C(NCCN1CCNC1=O)c1ccc2c(c1)c(C1CCCCC1)c(-c1ccoc1)n2CC(=O)N1CCC(N2CCCC2)CC1` [Example 7044], for which the concentration for half-maximal inhibition (IC50) lay in the range of 1 to 10 µM. The result for `O=C(O)c1ccc(CNC(=O)c2ccc3c(c2)c(C2CCCCC2)c(-c2ccoc2)n3CC(=O)N2CCC(N3CCCC3)CC2)cc1` [Example 7045] reads 1 to 10 µM. The result for `CC(C)CC(NC(=O)c1ccc2c(c1)c(C1CCCCC1)c(-c1ccoc1)n2CC(=O)N1CCC(N2CCCC2)CC1)C(N)=O` (stereo not shown) [Example 7046] reads 1 to 10 µM; that for `CC(C)(C)OC(=O)C(C)(C)NC(=O)c1ccc2c(c1)c(C1CCCCC1)c(-c1ccoc1)n2CC(=O)N1CCC(N2CCCC2)CC1` [Example 7047], 1 to 10 µM.

Take `Cc1oc(-c2ccc(NC(=O)c3ccc4c(c3)c(C3CCCCC3)c(-c3ccoc3)n4CC(=O)N3CCC(N4CCCC4)CC3)cc2)cc1C(=O)O` [Example 7048]: the concentration for half-maximal inhibition (IC50) was 1 to 10 µM.

For the origin of these results see patent US7888363B2, “Viral polymerase inhibitors” (Boehringer Ingelheim International GmbH, priority 2003, dated 2011).
